Structures can show the parent of a compound that is named as a salt.
Columns and labels:
[1] = test system: NF-kB p65; assay: NF-kB p65 nuclear translocation by immunofluorescence in LPS-activated microglia; type: cell-based, murine; settings: LPS + drug 30 min
Protocol: (§1) Lipopolysaccharide (LPS) from Escherichia coli 026:B6 in an aqueous solution (Thermo Fisher Scientific) was used as proinflammatory stimuli in microglia at a final concentration of 600 ng/mL. For the LPS experiments, the concentration of fetal bovine serum in the microglia culture medium was reduced to 0.1% immediately before drug treatment. All of the compounds were titrated in their respective vehicle and diluted into the culture media for cell treatments. The final concentration of vehicle (DMSO, EtOH or H2O) was consistent for all treated cells (0.2%).
(§2) For the immunofluorescence experiments, neurons and microglia were directly seeded on glass coverslips previously treated with 1 mg/mL of poly-L-lysine. […] After the drug treatments, the cells were fixed on ice with 4% paraformaldehyde for 25 min and then permeabilized and blocked using 0.1% Triton X-100 (10 min) and 5% BSA (30 min), respectively. Cells were then incubated overnight with the primary antibodies and 1% BSA at 4 °C. The primary antibodies anti-Nrf2 (ab1375550) and anti-NF-kB p65 (ab16502) (both from Abcam, Cambridge, United Kingdom) were used at 1:200. After washing with PBS, cells were incubated with the fluorophore-conjugated secondary antibody anti-Rabbit IgG Alexa Fluor 488 (Thermo Fisher Scientific) at 1:500 for 1 h at room temperature. Cells were counterstained with the TO-PRO fluorescent dye (Thermo Fisher Scientific) to visualize the cell nuclei. Images were captured using the confocal microscope Leica TCS SP5 (Leica Microsystems, Wetzlar, Germany). For each experimental condition, five random fields were captured and analyzed using ImageJ software (National Institutes of Health, Maryland, DC, USA). Activation of Nrf2 or NF-kB was defined as nuclear translocation, measured by the increase in the mean fluorescence intensity (MFI) in the nucleus. Each experiment was repeated three times.

[2] = test system: neurons; assay: RNA-sequencing of drug-treated neurons; type: cell-based, rat
[3] = test system: neurons; assay: Neuronal apoptosis (TUNEL) induced by conditioned medium of LPS-activated microglia; type: cell-based, Wistar rats; settings: neurons pre-treated 4 h, then 4 h with supernatant of LPS + drug microglia (48 h)
Protocol: Given that physiologically, if any of the drugs enter the BBB, both the neurons and microglia will be exposed to them, we decided to study the synergistic effects (direct antioxidant properties in neurons with indirect anti-inflammatory effects in microglia) of the drugs in both cells. […] Representative confocal microscopy images of the apoptosis assay are shown in Supplementary Figure S2.
The apoptosis of neurons was determined using the DeadEnd™ Fluorometric TUNEL System (Promega Biotech Ibérica, Madrid, Spain) following the manufacturer’s instructions. Neurons were seeded on glass coverslips previously treated with 1 mg/mL of poly-L-lysine at a density of 500,000 cells/well. […] Then, the supernatants of 48 h LPS-treated or LPS + drug (at the same drug concentrations as in neurons) microglia cells were added to the neuronal culture and incubated for an additional 4 h. Apoptosis was determined using Leica TCS SP5 confocal microscopy and quantified using ImageJ software. For each experimental condition, five random fields were captured to count the number of positive fluorescent cells (apoptotic) divided by the total number of cells identified by the nuclear fluorescent staining TO-PRO. Each experiment was repeated three times.

[4] = test system: nitric oxide (NO) production in microglia; assay: Nitric oxide production (Griess Reagent System) in LPS-activated microglia; type: cell-based, murine; settings: for lowest concentration inhibiting the production of NO: LPS-activated microglia
Protocol: as §1, with “DMF and MMF (both from Sigma-Aldrich, Saint Louis, MO, USA) were prepared as stock solutions in dimethyl sulfoxide (DMSO); CBD (Cayman chemical, Ann Arbor, MI, USA) was prepared in ethanol (EtOH). Lipopolysaccharide” for “Lipopolysaccharide”
The concentration of nitrites was measured as an indirect indicator of nitric oxide (NO) production in microglia by using the colorimetric assay Griess Reagent System (Promega Biotech Ibérica, Madrid, Spain). Microglial cells were seeded in 96-well plates, previously treated with 0.1 mg/mL of poly-L-lysine, at a density of 50,000 cells/well. […] The concentration of NO was quantified at a wavelength of 520 nm in an absorbance reader plate. Experiments were repeated three times, each condition in triplicate.

[5] = test system: Nrf2; assay: Nrf2 nuclear translocation by immunofluorescence in microglia; type: cell-based, murine; settings: for Nrf2 activation (nuclear translocation), result in words: 4 h, any tested concentration
Protocol: Primary hippocampal neurons were obtained from Wistar rats on embryonic day 18. Briefly, embryos were removed from the womb under sterile conditions and decapitated to dissect the brains. Hippocampi were isolated at 4 °C in Hank’s balanced salt solution (HBSS) without calcium and magnesium, supplemented with 10 mM HEPES buffered saline and 100 U/mL of penicillin-streptomycin. The hippocampi were mechanically disaggregated using fire-polished pipettes and plated for 2–4 h in neuronal plating medium composed of minimum essential medium (MEM) enriched with 0.6% D-glucose and 10% horse serum. Neuronal plating medium was replaced by neurobasal medium supplemented with 1X B-27 and 2 mM L-glutamine. Neurons were grown for 7 days prior to the experiments. For the microglial cells, we used the BV-2 immortalized murine cell line. Microglial cells were cultured in Dulbecco’s modified Eagle medium (DMEM) with 4.5 g/L D-glucose, 2 mM L-glutamine, 100 U/mL of penicillin-streptomycin, and 10% heat-inactivated fetal bovine serum. Cells were maintained at 37 °C in a humidified incubator with 5% CO2. All culture media were purchased from Thermo Fisher Scientific (Waltham, MA, USA).
as §2, with “After washing with PBS, cells were incubated with the fluorophore-conjugated secondary antibody anti-Rabbit IgG Alexa Fluor 488 (Thermo Fisher Scientific) at 1:500 for 1 h at room temperature. Cells were counterstained with the TO-PRO fluorescent dye (Thermo Fisher Scientific) to visualize the cell nuclei. Images were captured using the confocal microscope Leica TCS SP5 (Leica Microsystems, Wetzlar, Germany).” left out, “Each experiment was repeated three times.” left out

[6] = after oral intake of the therapeutic dose established for DMF; cited from earlier work
[7] = 4 h, 30 µM DMF, 30 µM MMF, 6 µM CBD
[8] = 24 h, 30 µM DMF, 30 µM MMF, 6 µM CBD

## C=C(C)[C@@H]1CCC(C)=C[C@H]1c1c(O)cc(CCCCC)cc1O [CBD, cannabidiol]
[1]; 4 µM
  effect on LPS-induced NF-kB p65 nuclear translocation, in words: inhibition of NF-kB p65
[1]; 6 µM
  effect on LPS-induced NF-kB p65 nuclear translocation, in words: inhibition of NF-kB p65
[1]; CBD concentrations higher than 6 µM
  effect on LPS-induced NF-kB p65 nuclear translocation, in words: this inhibition was not achieved
[2]; [7]
  number of differentially expressed genes (DEGs) vs vehicle: four
[2]; 24 h, 6 µM CBD
  Hmox1 expression vs vehicle: 4.9 log2FC
  number of DEGs with strong downregulation (fold change < −1): eight
  number of DEGs with strong upregulation (fold change > 1): nine
[2]; 24 h, 30 µM DMF, 6 µM CBD
  number of downregulated DEGs vs vehicle: 21
  number of upregulated DEGs vs vehicle: 12
[2]; [8]
  number of differentially expressed genes (DEGs) vs vehicle: 33
[3]; 7 µM
  effect on neuronal apoptosis, in words: prevented neuronal apoptosis
[4]; LPS + drug, 10 µM
  concentration of NO in the supernatant, in words: almost undetectable
[4]; LPS + drug, starting from 6 µM, all timepoints, LPS alone around 40 µM at 48 and 72 h
  concentration of NO in the supernatant: below 10 µM
[4]
  lowest concentration inhibiting the production of NO: 6 µM
[5]
  Nrf2 activation (nuclear translocation), result in words: did not produce the activation of Nrf2

## COC(=O)/C=C/C(=O)OC [DMF, Dimethyl fumarate]
[2]; 30 µM DMF
  number of DEGs between 24 h and 4 h of treatment (across time): 1276
[2]; 4 h, 30 µM DMF
  Hmox1 expression vs vehicle: 3.9 log2FC
  number of downregulated DEGs vs vehicle: 169
  number of upregulated DEGs vs vehicle: 238
[2]; [7]
  number of differentially expressed genes (DEGs) vs vehicle: 407
[2]; 24 h, 30 µM DMF
  Nfe2l2 expression vs vehicle: 0.94 log2Fc
[2]; 24 h, 30 µM DMF, 6 µM CBD
  number of downregulated DEGs vs vehicle: 144
  number of upregulated DEGs vs vehicle: 120
[2]; 24 h, 30 µM DMF, 30 µM MMF
  Nqo1 expression vs vehicle: 2.3 log2FC
[2]; [8]
  number of differentially expressed genes (DEGs) vs vehicle: 264
[3]; 10 µM
  effect on neuronal apoptosis, in words: significantly prevented neuronal apoptosis
[3]; 30 µM
  effect on neuronal apoptosis, in words: not at 30 µM
[4]; LPS + drug, 48 and 72 h, all studied concentrations from 1 µM, LPS alone around 40 µM
  concentration of NO in the supernatant: around 20 µM
[4]
  lowest concentration inhibiting the production of NO: ≤ 1 µM
[5]; 4 h treatment, significant vs vehicle
  lowest concentration inducing nuclear translocation (activation) of Nrf2: 10 µM

## COC(=O)/C=C/C(=O)O [MMF, monomethyl fumarate]
[1]; any of the studied concentrations
  effect on LPS-induced NF-kB p65 nuclear translocation, in words: did not prevent the activation of NF-KB
[2]; [7]
  number of differentially expressed genes (DEGs) vs vehicle: did not produce any significant transcriptomic changes
[2]; 24 h, 30 µM DMF, 30 µM MMF
  Nqo1 expression vs vehicle: 0.98 log2FC
[2]; [8]
  number of differentially expressed genes (DEGs) vs vehicle: three
[2]; 24 h, 30 µM MMF
  Gstp1 expression vs vehicle: 0.66 log2FC
[6]
  concentration of MMF detected in the brain: approximately 100 µM
[3]; 10 µM
  effect on neuronal apoptosis, in words: also prevented neuronal apoptosis
[3]; 30 µM
  effect on neuronal apoptosis, in words: also protected neurons from apoptosis
[4]; LPS + drug, 24 h
  inhibition of NO production, in words: significant NO inhibition
[4]; LPS + drug, same concentrations as DMF (from 1 µM)
  inhibition of NO production vs LPS-treated cells, in words: halving the concentrations of NO
[5]
  Nrf2 activation (nuclear translocation), result in words: did not observe Nrf2 activation
